pIC50: −log10 of the molar value. Where two headings read alike, the source gives them in different places.
Columns and labels:
Type in all cases: cell-based
[1] = system: AR and its target gene product PSA in LNCaP cells; experiment: Western blot of AR and PSA expression in LNCaP cells; details: LNCaP cells, 72 h of incubation, 2.5% FBS, Western blot, read-out: concentration reducing expression of AR and PSA by 50%
Method: (§1) Cells cultured in T25 flasks were collected by scraping, and cell pellets were washed once with PBS. Cells were lysed in a lysis buffer consisting of 1% SDS, 10 mM EDTA and 50 mM Tris-HCl, pH 8.1, in the presence of a commercial protease inhibitor cocktail from Aldrich-Sigma (2 mM AEBSF, 1 mM EDTA, 130 μM bestatin, 14 μM E-64, 1 μM leupeptin, and 0.3 μM aprotinin). Following a 10-sec sonication using 20% output in a Virsonic 300 sonicator (Virtis, Gardiner N.Y.) to disrupt cellular organelles and genomic DNA, cell lysates were centrifuged at 15,200×g for 15 minutes. One μL of the suspension was used for protein determination using a colorimetric BCA assay (Pierce, Rockford, Ill.), and to the remaining solution was added an equivalent volume of 2×SDS-polyacrylamide gel electrophoresis sample loading buffer (62.5 mM Tris-HCl, pH 6.8, 4% SDS, 5% β-mercaptoethanol, 20% glycerol, and 0.1% bromophenol blue), and boiled for 5 min. Equal amounts of proteins were resolved in 8% SDS-polyacrylamide gels, and transferred to nitrocellulose membranes using a semidry transfer cell. The transblotted membrane was washed twice with Tris-buffered saline containing 0.1% Tween 20 (TBST). After blocking with TBST containing 5% nonfat milk for 40 min, the membrane was incubated with the appropriate primary antibody in TBST-1% nonfat milk at 4° C. overnight. All primary antibodies were diluted 1:1000 in 1% nonfat milk-containing TBST. After treatment with the primary antibody, the membrane was washed three times with TBST for a total of 15 min, followed by incubation with goat anti-rabbit or anti-mouse Immunoglobulin G (IgG)-horseradish peroxidase conjugates (diluted 1:2000) for 1 h at room temperature and four washes with TBST for a total of 1 h. The immunoblots were visualized by enhanced chemiluminescence.

LNCaP cells = experiment: MTT viability assay, LNCaP cells
Method: LNCaP androgen-dependent (p53^+/+) and PC-3 androgen-nonresponsive (p53^−/−) prostate cancer cells were purchased from the American Type Culture Collection (Manassas, Va.), and cultured in RPMI 1640 medium containing 10% heat-inactivated FBS. […] All cell types were cultured at 37° C. in a humidified incubator containing 5% CO2. Cells in log phase growth were harvested by trypsinization for use in the MTT viability assay. LNCaP cells were plated in poly-D-lysine coated culture flasks in order to assist cell adherence to the surface. Prior to drug treatment, cells were plated in a density of 12,000 cells/cm^2 surface area in the respective culture medium for 24-48 h, followed by individual test agents in 2.5% FBS-supplemented RPMI medium.

Sp1 = Sp1 protein expression, stability and ubiquitination in LNCaP cells; details: for Sp1 protein half-life relative to DMSO control / Sp1 protein expression: LNCaP cells; for Sp1 ubiquitination: LNCaP cells expressing HA-ubiquitin and Flag-Sp1, 24 h; for Sp1 protein expression: Western blot
Method: as §1
LNCaP cells were co-transfected with 5 μg each of Flag-Sp1 and HA-ubiquitin plasmids in an Amaxa Nucleofector using a LNCaP-specific nucleofector kit. These transiently transfected cells were seeded in 6-well plates at 2×10^5 per well. After 48-h incubation, cells were exposed to VES or TS-1 at the indicated concentration for 48 h, and lysed by a radioimmunoprecipitation assay lysis buffer (Santa Cruz Biotechnology) in the presence of a freshly prepared cocktail of phosphatase and protease inhibitors (2 mmol/L AEBSF, 1 mM EDTA, 130 μM bestatin, 14 μM E-64, 1 μM leupeptin, and 0.3 μM aprotinin, 2 mM imidazole, 1 mM sodium fluoride, 1.15 mM sodium molybdate, 1 mM sodium orthovanadate, and 4 mmol/L sodium tartrate dihydrate). After centrifugation at 13,000×g for 15 min, the supernatants were collected, preincubated with protein A/G agarose (Santa Cruz Biotechnology) for 15 min, and centrifuged at 1,000×g for 5 min. Supernatant (20 μL) were stored at 4° C. to be used as input, whereas the remaining supernatant was exposed to 4 μg of anti-Sp1 antibodies at 4° C. for 12 h, followed by protein A/G agarose beads at 4° C. for another 2 h. After brief centrifugation, immunoprecipitates were collected, washed with the aforementioned lysis buffer four times, suspended in 2×SDS sample buffer, and subjected to Western blot analysis with antibodies against HA and Flag.

AR promoter = experiment: AR promoter-luciferase reporter assay (hAR-Luc) in LNCaP cells; details: hAR-Luc transfected LNCaP cells, 72 h of exposure
Method: Transfection and Luciferase Assay.
Cells were transfected with 5 μg of the AR-linked luciferase reporter (hAR-Luc) plasmid in an Amaxa Nucleofector using a cell line-specific nucleofector kit according to the manufacturer's protocol (Amaxa Inc. Gaithersburg, Md.) and then seeded in T25 flasks at 3×10^5 cells per flask for 48 h. The transfection efficiency was determined by transfecting cells with 3 μg of pmaxGFP plasmid followed by fluorescence microscopy to detect green fluorescent protein expression. For each transfection, herpes simplex virus (HSV) thymidine kinase promoter-driven Renilla reniformis luciferase was used as an internal control for normalization. For the luciferase reporter gene assay, after transfection, cells were cultured in 24-well plates in 10% FBS-supplemented RPMI 1640 for 48 h, subjected to different treatments in 2.5% FBS-supplemented medium for the indicated times, collected, and lysed with passive lysis buffer (Promega). Aliquots of lysates (50 μL) were mixed with 75 μL of luciferase substrate (Promega) in 96-well plates, and luciferase activities were monitored in a MicroLumaPlus LB96V luminometer (Berthold Technologies, Oak Ridge, Tenn.) with the WinGlow software package. All transfection experiments were carried out in six replicates.

[2] = system: Sp1 mRNA and Sp1 target genes VEGF, Mdm2, DNMT1; experiment: mRNA expression of Sp1 and Sp1 downstream target genes in LNCaP cells; details: for Sp1 mRNA expression: high doses
Method: RNA Isolation and Reverse Transcription (RT)-PCR.
LNCaP cells were subject to total RNA isolation by using a Trizol reagent (Invitrogen Corporation, CA). RNA concentrations were determined by measuring absorption at 260 nm in a spectrophotometer. Aliquots of 2 μg of total RNA from each sample were reverse transcribed to cDNAs using the iScript cDNA Synthesis Kit (Bio-Rad) according to the manufacturer's instructions. PCR products were resolved electrophoretically in 1.2% agarose gels and visualized by ethidium bromide staining.

| SMILES | pIC50 ([1]; Homo sapiens) | cell viability of LNCaP cells (LNCaP cells) | Sp1 protein half-life relative to DMSO control (Sp1) | Sp1 ubiquitination (Sp1) | Sp1 protein expression (Sp1) | AR gene transcription (luciferase reporter activity) (AR promoter) | transcription of Sp1 downstream target genes (VEGF, Mdm2, DNMT1) [2] | Sp1 mRNA expression [2] | pIC50 [1] |
| --- | --- | --- | --- | --- | --- | --- | --- | --- | --- |
| Cc1c(C)c2c(c(C)c1OC(=O)CCC(=O)O)CCC(C)(CCCC(C)CCCC(C)C)O2 (stereo not shown) [TS-1, succinic acid mono-[2-(4,8-dimethyl-nonyl)-2,5,7,8-tetramethylchroman-6-yl]ester] | 5.30 | suppressing the cell viability | shortened half-life | increased the extent of Sp1 ubiquitination | reduce Sp1 levels | dose-dependent inhibitory effect | dose-dependent transcriptional repression | remained unaltered | – |
| Cc1c(C)c2c(c(C)c1OC(=O)CCC(=O)O)CC[C@@](C)(CCC[C@H](C)CCC[C@H](C)CCCC(C)C)O2 [VES, α-tocopheryl succinate] | – | suppressing the cell viability | shortened half-life | increased the extent of Sp1 ubiquitination | reduce Sp1 levels | dose-dependent inhibitory effect | dose-dependent transcriptional repression | remained unaltered | ≤ 5.00 |

Source: US8461362B2, “Protein phosphatase 2A-activating agents” (The Ohio State University Research Foundation, priority 2009, dated 2013)
